According to patent US6962909B2, “Treatment of neovascularization disorders with squalimine” (Genaera Corporation, priority 1995, dated 2005):
Converted amounts (≈) assume the structure as drawn.

Tests used:
[1] = test system: E. coli; assay: Antibiotic activity, MIC; format: cell-based; details: Escherichia coli
[2] = test system: S. aureus; assay: Antibiotic activity, MIC; format: cell-based; details: Staphylococcus aureus
[3] = test system: human microvascular cells; assay: Endothelial cord formation assay; format: cell-based; as to Effect on endothelial cord formation: key: + = Inhibition of angiogenesis; − = No inhibition of angiogenesis; T = Toxic; *= cell rounding @ 10 µg/ml
Excerpt: Endothelial cells have the capacity in vitro to form tubular aggregates resembling capillaries in various early stages of formation. This conversion occurs under relatively specific conditions, in which essential growth factors along with an effective substratum are provided. It has been shown that both the interaction of growth factors with the endothelial cell and its attachment to a substratum activate the NHE. The activation of this exchanger is believed to be required for subsequent morphologic transformation of the endothelial cell into a multicellular tubular structure.
To assess the effect of compounds on the cord-like structures formed by human microvascular cells when plated in the presence of VGEF (Vascular Endothelial Growth Factor) and basic fibroblast growth factor on a collagen matrix, a standard cord formation assay was used.

[4] = test system: vitelline capillaries of 3- to 5-day chick embryo; assay: Chick embryo vitelline capillary regression assay; format: in vivo; design: key to Vascular reactivity (capillary regression): + = Vascular reactivity; 0 = No vascular reactivity; +/− = Equivocal reactivity; details: 60 minutes
Procedure: Using the chick embryo vitelline capillaries assay, compounds were tested for their ability to induce capillary regression. Each compound was applied in 0.1 ml of 15% Ficol 400 and PBS onto the embryo, and vascular regression was assessed after 60 minutes.
The 3-day chick embryo consists of an embryonic disc from which numerous vessels emerge and return, forming a “figure 8”-shaped structure—the embryo in the center with vascular loops extending outward over both poles. […] Following a lag period of around 15 minutes, the constriction of continuity between capillary and secondary vessels, generally on the “venous” side, was observed. Continued pulsatile blood flow progressed, resulting in a “swelling” of the blind tube, followed by a pinching off of the remaining connection and formation of an enclosed vascular sac resembling a “blood island.” This process progressed until only the largest vessels remained intact.

[5] = test system: Stage 59-60 Xenopus tadpoles; assay: Xenopus tadpole assay; format: in vivo, Xenopus laevis; details: 10 μg/ml in water
Excerpt: A newly developed assay employing tadpoles, preferably Xenopus laevis Stages 59-60, were employed to study the effect of a compound by monitoring capillary occlusion in the tadpole's tail. […] The compounds of the invention affect the shape, viability and integrity of the embryonic tissues while not affecting the adult tissues, providing a powerful, highly specific screen. For example, substances that destroy all of the animal's epithelium, both adult and embryonic, could be regarded as toxic.
In this assay, tadpoles are introduced into Petri dishes containing a solution of the test compound in distilled water, preferably about 100 ml. The preferred concentration of the test compound is from about 1 μg/ml to about 10 μg/ml. The volume of liquid is sufficient for the animal to swim freely and drink from the solution. Thus, the effect observed results from oral absorption and subsequent systemic distribution of the agent. If the volume of liquid is not sufficient to permit oral intake, the effects that are observed would result from absorption through the surface epithelium. Thus, this simple assay can identify if an compound has characteristics of oral availability.
After an amount of time, typically about 60 minutes, the occlusion of blood flow through capillaries in the tadpole's tail are observed under an inverted microscope at a magnification of roughly 100×.
The tadpole assay described above provides an advantageous way to determine the pharmacological targets of each steroid when introduced into a mammal, and to determine pharmacological categories into which synthetic compounds belong. In the assay, each of the steroids was dissolved in 100 ml of distilled water at a concentration of 10 μg/ml. Stage 59-60 Xenopus tadpoles were introduced and evaluated by light microscopy and gross observation 1 hour later.

CC(CCC(=O)O)[C@H]1CCC2C3C(CC[C@@]21C)[C@@]1(C)CC[C@H](NCCCNCCCCNCCCN)C[C@@H]1C[C@H]3O (some centres unmarked)
MIC [1]: 32 to 64 µg/mL (≈ 55.5 to 111 µM)
MIC [2]: 16 µg/mL (≈ 27.7 µM)

COC(=O)CCC(C)[C@H]1CCC2C3C(CC[C@@]21C)[C@@]1(C)CC[C@H](NCCCNCCCCN)C[C@H]1C[C@H]3O (some centres unmarked)
MIC [1]: 256 µg/mL (≈ 480 µM)
MIC [2]: 64 µg/mL (≈ 120 µM)

COC(=O)CCC(C)[C@H]1CCC2C3C(CC[C@@]21C)[C@@]1(C)CC[C@@H](NCCCNCCCCN)C[C@H]1C[C@H]3O (some centres unmarked)
MIC [1]: 32 to 64 µg/mL (≈ 59.9 to 120 µM)
MIC [2]: 4 µg/mL (≈ 7.49 µM)

CC(C)CCCC(C)[C@H]1CCC2C3C(CC[C@@]21C)[C@@]1(C)CC[C@H](N)C[C@@H]1C[C@H]3O (some centres unmarked)
MIC [1]: > 256 µg/mL
MIC [2]: 2 µg/mL (≈ 4.95 µM)

COC(=O)CCC(C)[C@H]1CCC2C3C(CC[C@@]21C)[C@@]1(C)CC[C@H](NCCCNCCCCNCCCN)C[C@H]1C[C@H]3O (some centres unmarked)
MIC [1]: 64 µg/mL (≈ 108 µM)

COC(=O)CCC(C)[C@H]1CCC2C3C[C@@H](O)[C@H]4C[C@H](NCCN)CC[C@]4(C)C3CC[C@@]21C (some centres unmarked)
MIC [1]: 32 to 64 µg/mL (≈ 71.3 to 143 µM)

COC(O)CCC(C)[C@H]1CCC2C3C(CC[C@@]21C)[C@@]1(C)CC[C@H](NCCCNCCCCNCCCN)C[C@H]1C[C@H]3O (some centres unmarked)
Cord Formation, Minimum Effective Concentration [3]: 10 µg/mL

CC(CCC(=O)O)[C@H]1CCC2C3C(CC[C@@]21C)[C@@]1(C)CC[C@H](NCCN)C[C@H]1C[C@H]3O (some centres unmarked)
Cord Formation, Minimum Effective Concentration [3]: >10 µg/mL

CC(C)CCCC(C)[C@H]1CCC2C3CC[C@H]4C[C@@H](NCCCNCCCCN)CC[C@]4(C)C3CC[C@@]21C (some centres unmarked) [Compound 303]
Vascular reactivity (capillary regression) ([4]; 1 μg applied): 0

CC(CCC(=O)O)[C@H]1CCC2C3CC[C@H]4C[C@H](NCCCNCCCCN)CC[C@]4(C)C3CC[C@@]21C (some centres unmarked) [Compound 318]
Vascular reactivity (capillary regression) ([4]; 1 μg applied): 0

CC(C)CCCC(C)[C@H]1CCC2C3C(CC[C@@]21C)[C@@]1(C)CC[C@@H](NCCCNCCCCN)C[C@@H]1C[C@H]3O (some centres unmarked) [Compound 370]
Pharmacological category in tadpole assay (similarity to a reference steroid) [5]: pharmacologic activity similar to that seen for FX 3

CC(CCC(=O)O)[C@H]1CCC2C3C(CC[C@@]21C)[C@@]1(C)CC[C@H](NCCCNCCCCN)C[C@@H]1C[C@H]3O (some centres unmarked) [Compound 381]
Vascular reactivity (capillary regression) ([4]; 1 μg applied): 0

CC(CCC(=O)O)[C@H]1CCC2C3C(CC[C@@]21C)[C@@]1(C)CC[C@@H](NCCCNCCCCN)C[C@@H]1C[C@H]3O (some centres unmarked) [Compound 382]
Vascular reactivity (capillary regression) ([4]; 0.001 μg applied): 0
Vascular reactivity (capillary regression) ([4]; 0.01 μg applied): 0
Vascular reactivity (capillary regression) ([4]; 0.1 μg applied): 0
Vascular reactivity (capillary regression) ([4]; 1 μg applied): +
Vascular reactivity (capillary regression) ([4]; 10 μg applied): +

COC(=O)CCC(C)[C@H]1CCC2C3C(CC[C@@]21C)[C@@]1(C)CC[C@H](NCCCNCCCCNCCCN)C[C@@H]1C[C@H]3O (some centres unmarked) [Compound 396]
Vascular reactivity (capillary regression) ([4]; 0.001 μg applied): 0
Vascular reactivity (capillary regression) ([4]; 0.01 μg applied): 0
Vascular reactivity (capillary regression) ([4]; 0.1 μg applied): 0
Vascular reactivity (capillary regression) ([4]; 1 μg applied): +

COC(=O)CCC(C)[C@H]1CCC2C3C(CC[C@@]21C)[C@@]1(C)CC[C@H](NCCCNCCCCNCCCN)C[C@H]1C[C@H]3O (some centres unmarked) [Compound 411]
Effect on endothelial cord formation ([3]; 0.1 μg/ml): −
Effect on endothelial cord formation ([3]; 1.0 μg/ml): −
Effect on endothelial cord formation ([3]; 10.0 μg/ml): +
Vascular reactivity (capillary regression) ([4]; 0.001 μg applied): 0
Vascular reactivity (capillary regression) ([4]; 0.01 μg applied): 0
Vascular reactivity (capillary regression) ([4]; 0.1 μg applied): 0
Vascular reactivity (capillary regression) ([4]; 1 μg applied): +/−

CC(CCC(=O)O)[C@H]1CCC2C3C(CC[C@@]21C)[C@@]1(C)CC[C@H](NCCN)C[C@H]1C[C@H]3O (some centres unmarked) [Compound 415]
Effect on endothelial cord formation ([3]; 0.1 μg/ml): −
Effect on endothelial cord formation ([3]; 1.0 μg/ml): −
Effect on endothelial cord formation ([3]; 10.0 μg/ml): +/T
Vascular reactivity (capillary regression) ([4]; 0.001 μg applied): 0
Vascular reactivity (capillary regression) ([4]; 0.01 μg applied): +
Vascular reactivity (capillary regression) ([4]; 0.1 μg applied): +
Vascular reactivity (capillary regression) ([4]; 1 μg applied): +

COC(=O)CCC(C)[C@H]1CCC2C3CC[C@@H]4C[C@H](NCCN)CC[C@]4(C)C3C[C@H](O)[C@@]21C (some centres unmarked) [Compound 416]
Pharmacological category in tadpole assay (similarity to a reference steroid) [5]: functionally similar to compound 1437

COC(=O)CCC(C)[C@H]1CCC2C3C[C@@H](O)[C@H]4C[C@H](NCCN)CC[C@]4(C)C3CC[C@@]21C (some centres unmarked) [Compound 431]
Pharmacological category in tadpole assay (similarity to a reference steroid) [5]: functionally similar to compound 1437

CC(CCC(=O)O)[C@H]1CCC2C3C[C@@H](O)[C@H]4C[C@@H](NCCN)CC[C@]4(C)C3CC[C@@]21C (some centres unmarked) [Compound 433]
Pharmacological category in tadpole assay (similarity to a reference steroid) [5]: functionally similar to compound 1437

CC(CCC(=O)O)[C@H]1CCC2C3CC[C@@H]4C[C@H](NCCCNCCCCNCCCN)CC[C@]4(C)C3C[C@H](O)[C@@]21C (some centres unmarked) [Compound 449]
Effect on endothelial cord formation ([3]; 1.0 μg/ml): −

COC(=O)CCC(C)[C@H]1CCC2C3CC[C@H]4C[C@H](NCCCNCCCCNCCCN)CC[C@]4(C)C3CC[C@@]21C (some centres unmarked) [Compound 458]
Pharmacological category in tadpole assay (similarity to a reference steroid) [5]: pharmacologic activity similar to that seen for FX 3

CC(CCC(=O)O)[C@H]1CCC2C3C[C@@H](O)[C@H]4C[C@@H](NCCCNCCCCNCCCN)CC[C@]4(C)C3CC[C@@]21C (some centres unmarked) [Compound 467]
Effect on endothelial cord formation ([3]; 1.0 μg/ml): −
Effect on endothelial cord formation ([3]; 10.0 μg/ml): −

CC(C)CCCC(C)[C@H]1CCC2C3C(CC[C@@]21C)[C@@]1(C)CC[C@H](N)C[C@@H]1C[C@H]3O (some centres unmarked) [Compound 1364]
Vascular reactivity (capillary regression) ([4]; 0.001 μg applied): 0
Vascular reactivity (capillary regression) ([4]; 0.01 μg applied): 0
Vascular reactivity (capillary regression) ([4]; 0.1 μg applied): 0
Vascular reactivity (capillary regression) ([4]; 1 μg applied): +
Vascular reactivity (capillary regression) ([4]; 10 μg applied): +

CO[C@@H]1[C@H](OC(=O)/C=C/C=C/C=C/C=C/C(=O)O)CC[C@]2(CO2)[C@H]1[C@@]1(C)O[C@@H]1CC=C(C)C [Fumagillin, reference compound]
Concentration that inhibits cord formation [3]: 10 µg/mL
Effect on endothelial cord formation ([3]; 0.1 μg/ml): −
Effect on endothelial cord formation ([3]; 10.0 μg/ml): +

COC(=O)CCC(C)[C@H]1CCC2C3C(CC[C@@]21C)[C@@]1(C)CC[C@@H](NCCN)C[C@H]1C[C@H]3O (some centres unmarked) [drawing 70]
MIC [1]: 16 µg/mL (≈ 35.7 µM)
MIC [2]: 16 µg/mL (≈ 35.7 µM)

CC(CCC(=O)O)[C@H]1CCC2C3C(CC[C@@]21C)[C@@]1(C)CC[C@@H](NCCCNCCCCNCCCN)C[C@H]1C[C@H]3O (some centres unmarked) [drawing 72]
MIC [2]: 8 µg/mL (≈ 13.9 µM)

CC(CCC(=O)O)[C@H]1CCC2C3C(CC[C@@]21C)[C@@]1(C)CC[C@H](NCCCNCCCCNCCCN)C[C@H]1C[C@H]3O (some centres unmarked) [drawing 73]
MIC [1]: 256 µg/mL (≈ 444 µM)
MIC [2]: 8 µg/mL (≈ 13.9 µM)

COC(=O)CCC(C)[C@H]1CCC2C3C(CC[C@@]21C)[C@@]1(C)CC[C@@H](NCCN)C[C@H]1C[C@H]3O (some centres unmarked) [drawing 118]
Cord Formation, Minimum Effective Concentration [3]: 10 µg/mL

CC(CCC(=O)O)[C@H]1CCC2C3C(CC[C@@]21C)[C@@]1(C)CC[C@@H](NCCCNCCCCNCCCN)C[C@H]1C[C@H]3O (some centres unmarked) [drawing 152]
Cord Formation, Minimum Effective Concentration [3]: >10 µg/mL

CC(CCC(=O)O)[C@H]1CCC2C3C(CC[C@@]21C)[C@@]1(C)CC[C@H](NCCCNCCCCNCCCN)C[C@H]1C[C@H]3O (some centres unmarked) [drawing 154]
Cord Formation, Minimum Effective Concentration [3]: >10 µg/mL
